Measurements: patent US20070042339A1, “Preservation of biomaterials with transported preservation agents” (priority 2003, published 2007)
Read-outs that look alike come from different tables or passages of the source.

Key:
[1] = tested on: lymphocytes, fibroblasts and hepatocytes; type: cell-based, murine; rat
Method: The conventional permeable cryoprotectants such as DMSO and glycerol benefit cells for preservation, but they are known to be toxic to the cells at the same time. […] The toxicity of various glucose compounds, D-glucose and DMSO was examined after loading. Cells were incubated with glucose-free DMEM supplemented with 0.2 M 3OMG, with 0.2 M 2DG or 1.4 M DMSO for 60 min at 37° C. After loading, calcein and ethidium homodimer were added to cell suspensions to assess viability. Cells were run through Beckton-Dickinson FACSCalibur flowcytometer to take emission reading at 530 nm and 630 nm of 5000 particles. High green and low red fluorescence (calcein positive) were scored as live, whereas high red and low green (ethidium positive) were scored dead.

hepatocytes [2] = type: cell-based, rat
Text: The sandwich culture is a long-term culture technique that results in stable and differentiated hepatocytes. We evaluated albumin synthesis, urea production, and cytochrome P450 (CYP) activity of frozen-thawed hepatocytes as markers of synthetic, metabolic, and detoxification abilities of hepatocytes. Albumin production of 3OMG-loaded and cryopreserved hepatocytes stabilized following 7 days in culture (FIG. 11A). Daily average of albumin production (day 7-13) from 3OMG-loaded hepatocytes was approximately 60% of non-frozen control (1.29±0.19 μg and 2.14±0.26 μg, respectively) with statistically significant difference (p=0.014). […] The CYP activity was measured on day 3 and 7 after thawing.

hepatocytes [3] = type: cell-based; conditions: rat, 60 min, 200 mM
Method: HTS without sugar supplement was used for control samples. […] Following storage, samples were rapidly thawed in 37° C. H2O for 2 min with gentle agitation.

[4] = tested on: lymphocytes, fibroblasts and hepatocytes; assay: MTT assay of metabolic activity after glucose loading (Example 1); type: cell-based, murine; rat; conditions: 1 hr at 37° C.
Method: However, it was considered to be possible that high accumulation of glucose compounds change metabolic activity of the cells. Therefore, metabolic activity after sugar loading was measured with the MTT assay. MTT assay is a colorimetric assay based on the activity of mitochondrial dehydrogenase activity. […] Cells were seeded on 96-well culture plates with 100 μL defined medium supplemented with various glucose compounds according to the experimental design for 1 hr at 37° C. At the end of the treatment period, 10 μL of MT solution (5 mg/mL) were added and incubated for 2 hrs at 37° C. At this time, 100 μL of detergent solution were added to the wells and after 24 hrs of incubation at 25° C., and the absorption value at 570 nm was measured in a microtiter reader.

[5] = tested on: murine B lymphocytes, murine fibroblasts, and rat primary hepatocytes; assay: Cryopreservation with non-metabolizable glucose compounds, post-thaw trypan blue viability (Example 1); type: cell-based; conditions: 0.2 M loading 60 min
Method: At first, these compounds were tested on cryopreservation, which is most common protocol for preservation of biomaterials. Glucose compounds are thought to prevent damaging effects of protein and lipid-membranes during storage. In addition, glucose compounds have a high glass transition temperature and cause the formation of stable glasses during storage. Cells were incubated with glucose-free DMEM or glucose-free DMEM with 0.2 M 2DG, or 0.2 M 3OMG for 60 min at 37° C. […] Samples were stored for up to 14 days. Following storage, samples were rapidly thawed in 37° C. H2O for 80 sec with gentle agitation. […] Samples were then centrifuged, supernatant decanted, and cells were resuspended in culture medium.

## C[S+](C)[O-] [DMSO, dimethylsulfoxide]
[1]
  toxicity to the cells (percentage of dead cells after incubation): significant toxicity

## O=C[C@H](O)[C@@H](O)[C@H](O)[C@H](O)CO [D-glucose]
Hepatocytes [2]
  hepatospecific functions (albumin, urea, CYP) in long-term culture after cryopreservation: completely lost these functions in 5 days
Hepatocytes [3]
  post-thaw viability, percent of non-frozen samples: < 10%

## OC[C@H]1O[C@@](CO)(O[C@H]2O[C@H](CO)[C@@H](O)[C@H](O)[C@H]2O)[C@@H](O)[C@@H]1O [sucrose]
Hepatocytes [2]; collagen sandwich culture, 14 days
  hepatospecific functions (albumin, urea, CYP) in long-term culture after cryopreservation: completely lost these functions in 5 days

## OC[C@H]1OC(O)C[C@@H](O)[C@@H]1O (mixture of isomers) [2DG, 2-deoxy-D-glucose]
[4]; lymphocytes and fibroblasts
  metabolic activity (MTT) after loading, lymphocytes and fibroblasts: significant loss of metabolic activity
[4]; primary isolated hepatocytes
  metabolic activity (MTT) after loading, hepatocytes: not down-regulated
[5]
  viability after cryopreservation compared to non-glucose control: significantly high viability
Hepatocytes [3]
  post-thaw viability, percent of non-frozen samples: 15%
